Experimental data as given in article PMC6259646, “Role of Intestinal Hydrolase in the Absorption of Prenylated Flavonoids Present in Yinyanghuo” (Molecules, 2011).

Columns and labels:
rat intestine = experiment: four-site single-pass perfused rat intestinal model: effective permeability and metabolite formation; format: in vivo; conditions: for metabolites detected in the perfusate: HPLC; for identity of intestinal metabolite: rat intestinal perfusate, LC/MS/MS, loss of saccharide group at C7
Excerpt: Male Sprague-Dawley rats weighing between 250 and 300 g were obtained from the SLEK Lab Animal Center of Shanghai (Shanghai, China). The rats were fed with water and a standard diet. The rats were fasted overnight before the day of the experiment.
The surgical procedures were approved by the Animal Ethics Committee of Jiangsu Provincial Academy of Chinese Medicine. Anesthesia was induced by an i.m. injection of urethane (0.5 g/mL). After the rat was anesthetized, it was put over a heating blanket and under a heating lamp to keep its normal body temperature. We then cannulated four segments of the intestine, each with two cannulae. After each cannula was inserted, it was secured with a sterilized black suture before the next cannula was inserted and secured. First, the duodenum was located as the intestinal segment immediately adjacent to the stomach, and two cannulae at 10 cm apart were inserted into two ends of the duodenum and secured with suture. Next, the jejunum was located below the duodenum, and the first cannula was inserted at 4 cm below the duodenal outlet cannula, whereas the second cannula was inserted at 10 cm below the first jejunal cannula. Then, the terminal ileum was located by identifying the ileocecal junction of the rat intestine. The outlet cannula was inserted into the ileum at 2 cm above the junction, and the inlet cannula was inserted 10 cm above the outlet cannula. Lastly, the colon inlet cannula was inserted into the colon at 2 cm below the junction, and the outlet cannula was inserted through the anus. After cannulation, the small intestinal segments were placed carefully into the abdominal cavity, avoiding crimping or kinking of the segments. The incision was then covered by a normal saline-wetted paper towel. A piece of plastic wrap was put on the towel to keep the intestinal segments moist. Additionally, caution was also exercised to keep the inlet and outlet cannulate at the same height to avoid gravitational flow. To keep the temperature of the perfusate constant, the inlet cannulate was kept warm by a 37°C circulating water bath.
This is a single-pass perfusion method. Four segments of the intestine (duodenum, upper jejunum, terminal ileum, and colon) were perfused simultaneously with a perfusate containing the compound of interest using an infusion pump (Harvard Apparatus, Cambridge, MA, USA) at a flow rate of 0.2 mL/min. After a 30-min washout period, which is usually sufficient to achieve the steady-state absorption, four samples were collected from the outlet cannulae every 30 min afterward. After perfusion, the length of the intestine was measured as described previously The outlet concentrations of the test compounds in the luminal perfusate were determined by HPLC or LC/MS/MS.
The samples were separated on a Zorbax SB-C18 column (250 mm × 4.6 mm, 5 μm, Agilent). The mobile phase consisted of acetonitrile (A) and water containing 0.1% acetic acid (B). […] For MS analysis, the electro spray ionization (ESI) source was operated in the positive ion mode.
In the perfused rat intestinal model, Peff^* (effective permeability) is a representation of the intestinal membrane permeability. Peff^* of the compounds are calculated using the following equations: Peff^∗=1−Cm/Co/4Gz where Co and Cm are inlet and outlet concentrations, respectively; Gz, or Graetz number ( Gz=πDL/2Q ), is a scaling factor that incorporates flow rate (Q), intestinal length (L), and diffusion coefficients (D) to make the permeability dimensionless. Cm was adjusted for water flux, data points were discarded if the water flux exceeded 0.5%/cm of intestine.

[1] = test system: lactase phlorizin hydrolase; experiment: co-perfusion with LPH inhibitor gluconolactone in perfused rat intestinal model: inhibition of hydrolysis; format: in vivo; conditions: 10 μM flavonoid co-perfused with gluconolactone (40μM)
Protocol: This is a single-pass perfusion method. […] After a 30-min washout period, which is usually sufficient to achieve the steady-state absorption, four samples were collected from the outlet cannulae every 30 min afterward. After perfusion, the length of the intestine was measured as described previously The outlet concentrations of the test compounds in the luminal perfusate were determined by HPLC or LC/MS/MS. […] The total gluconolactone concentration was 40μM. After perfusion, perfusates were collected and determined by HPLC. […] The accuracy and precision were greater than 98%.

Row | metabolites detected in the perfusate (rat intestine) | identity of intestinal metabolite (rat intestine) | hydrolysis inhibition rate, colon [1] | hydrolysis inhibition rate, duodenum [1] | hydrolysis inhibition rate, ileum [1] | hydrolysis inhibition rate, jejunum [1] | Compound
1 | no metabolites were detected |  |  |  |  |  | COc1ccc(-c2oc3c(CC=C(C)C)c(O)cc(O)c3c(=O)c2O[C@@H]2O[C@@H](C)[C@H](O)[C@@H](O)[C@H]2O)cc1 [baohuoside I]
2 | one metabolite | sagittatoside A | 14% | 55% | 21% | 26% | COc1ccc(-c2oc3c(CC=C(C)C)c(OC4OC(CO)C(O)C(O)C4O)cc(O)c3c(=O)c2OC2OC(C)C(O)C(O)C2OC2OC(CO)C(O)C(O)C2O)cc1 (stereo not shown) [epimedin A]
3 | one metabolite | sagittatoside B | 22% | 42% | 74% | 40% | COc1ccc(-c2oc3c(CC=C(C)C)c(OC4OC(CO)C(O)C(O)C4O)cc(O)c3c(=O)c2OC2OC(C)C(O)C(O)C2OC2OCC(O)C(O)C2O)cc1 (stereo not shown) [epimedin B]
4 | one metabolite | 2″-O-rhamnosylicariside II | 35% | 42% | 52% | 40% | COc1ccc(-c2oc3c(CC=C(C)C)c(OC4OC(CO)C(O)C(O)C4O)cc(O)c3c(=O)c2OC2OC(C)C(O)C(O)C2OC2OC(C)C(O)C(O)C2O)cc1 (stereo not shown) [epimedin C]
5 | two metabolites | baohuoside I | 46% | 62% | 40% | 50% | COc1ccc(-c2oc3c(CC=C(C)C)c(O[C@@H]4O[C@H](CO)[C@@H](O)[C@H](O)[C@H]4O)cc(O)c3c(=O)c2O[C@@H]2O[C@@H](C)[C@H](O)[C@@H](O)[C@H]2O)cc1 [icariin]
